According to paper PMC11557314 (Frontiers in Pharmacology, 2024):
Where no end group is shown, it is not given here.

How the values were obtained:
[1] = molecular target: T1, hKOPr (Homo sapiens, UniProt P41145); assay: biochemical; conditions: for Emax: read-out: Efficacy at hKOPr Emax
[2] = test system: hKOPr; assay: Biased factor calculation from GTPγS and PRESTO-Tango data; set-up: species or system human; conditions: G-protein vs β-arrestin, DynA as reference; below 1 = β-arrestin bias
From the text: To perform biased factor analyses, we followed the step-by-step protocol described by [Nagi and Pineyro (2016)]. In short, curve fitting was used to calculate τ and Ka values for G-protein and β-arrestin pathway activation. Log(τ/Ka) ratios were subtracted by log(τ/Ka) of DynA as the reference to yield ΔLog(τ/Ka) values for each peptide. In a final step for each peptide, ΔLog (τ/Ka) values for G-protein pathway activation were subtracted from ΔLog(τ/Ka) values for β-arrestin pathway activation and vice versa to calculate ΔΔLog(τ/Ka). The biased factor is yielded by delogging ΔΔLog (τ/Ka).
To confidently identify a G-protein-biased peptide of interest, it is essential to keep in mind that the responses we collected through GTPγS and PRESTO-Tango assay are not solely determined by drug signaling properties but also by the way the cell and different assays “perceive” the generation of this response. These different “perceptions” of the pharmacological stimulus may themselves be responsible for an imbalance among signals from different pathways. To avoid this, and to be able to correctly estimate whether a peptide is indeed biased, we applied the method proposed by [Kenakin et al. (2012)], that is based on the operational method proposed by [Black and Leff (1983)]. This method takes into consideration receptor occupation by the agonist, communication of the pharmacological stimulus to the system, and the processing of the stimulus by the system that produces the response.

[3] = molecular target: T2, hMOPr (Homo sapiens, UniProt P35372); assay: Competitive radio binding assay with [3H]-DAMGO on hMOPr-CHO cell membranes; conditions: read-out: Ki hMOPr; [3H]-DAMGO 1 nM, 60 min 25°C; mean ± SEM
[4] = test system: p38 phosphorylation in hKOPr-CHO cells; assay: Western blot of phospho-p38 in hKOPr-CHO cells; format: cell-based, human; conditions: 1 µM, 10 min, ratio phosphorylated to non-phosphorylated protein
Protocol: hKOPr-CHO cells were seeded in 10-cm dishes and cultured until they reached 70%–80% confluency. Overnight serum starvation was initiated by replacing the culture medium with FBS-free medium [DMEM supplemented with 100 μg/mL GlutaMAX, 100 μg/mL penicillin/streptomycin, and 400 μg/mL geneticin (G418)]. […] The FBS-free medium was used as the control. After the treatment, cells were rinsed and harvested in cold PBS by scraping the dishes using a rubber policeman. Cell suspensions were centrifuged at 4°C for 7 min at 21,000 g, and the supernatants were removed. Pellets were then resuspended and washed in ice-cold PBS. […] Total proteins of the supernatant cell lysate were quantified by the biuret assay (Carl Roth GmbH, Karlsruhe, Germany). Antibody linearity ranges were determined for target proteins and the internal loading control, and the combined linear range was then used to determine how much sample should be loaded in order to produce a linear signal response. […] Immunoreactive bands were detected by incubating the membranes in a horseradish peroxidase-conjugated secondary antibody (1:5,000, Invitrogen), followed by incubation with enhanced chemiluminescence reagent (Merck Immobilon). […] To avoid errors introduced by stripping the membranes, total and phosphorylated proteins were analyzed from parallel gels. […]

[5] = molecular target: hDOPr (Homo sapiens, UniProt P41143); assay: Competitive radio binding assay with [3H]-diprenorphine on hDOPr-CHO cell membranes; conditions: read-out: Ki hDOPr; [3H]-diprenorphine 1 nM, 60 min 25°C; mean ± SEM
[6] = molecular target: T1, hKOPr; format: binding; conditions: for Ki: read-out: Ki hKOPr
[7] = molecular target: T1, hKOPr; assay: cell-based; format: cell-based; conditions: for Emax: HEK293, read-out: β-Arrestin recruitment, efficacy at hKOPr Emax; for EC50: read-out: β-Arrestin recruitment, potency at hKOPr EC50
[8] = molecular target: T2, hMOPr; format: biochemical; conditions: for EC50: read-out: hMOPr EC50, stimulation of [35S]GTPγS binding
[9] = read-out: Potency at hKOPr EC50
[10] = read-out: hKOPr EC50, stimulation of [35S]GTPγS binding

T1 sequence (P41145 whole entry): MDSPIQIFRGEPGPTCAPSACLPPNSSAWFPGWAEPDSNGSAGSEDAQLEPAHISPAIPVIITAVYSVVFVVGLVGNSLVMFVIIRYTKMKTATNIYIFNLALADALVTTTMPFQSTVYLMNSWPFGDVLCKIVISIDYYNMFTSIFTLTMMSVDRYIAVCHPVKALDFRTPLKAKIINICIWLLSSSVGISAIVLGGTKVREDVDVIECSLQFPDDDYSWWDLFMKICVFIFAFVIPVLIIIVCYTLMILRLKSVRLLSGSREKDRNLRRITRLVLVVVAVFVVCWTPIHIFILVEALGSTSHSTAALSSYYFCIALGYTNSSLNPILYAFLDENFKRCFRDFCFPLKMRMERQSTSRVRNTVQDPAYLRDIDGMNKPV
T2 sequence (P35372 whole entry): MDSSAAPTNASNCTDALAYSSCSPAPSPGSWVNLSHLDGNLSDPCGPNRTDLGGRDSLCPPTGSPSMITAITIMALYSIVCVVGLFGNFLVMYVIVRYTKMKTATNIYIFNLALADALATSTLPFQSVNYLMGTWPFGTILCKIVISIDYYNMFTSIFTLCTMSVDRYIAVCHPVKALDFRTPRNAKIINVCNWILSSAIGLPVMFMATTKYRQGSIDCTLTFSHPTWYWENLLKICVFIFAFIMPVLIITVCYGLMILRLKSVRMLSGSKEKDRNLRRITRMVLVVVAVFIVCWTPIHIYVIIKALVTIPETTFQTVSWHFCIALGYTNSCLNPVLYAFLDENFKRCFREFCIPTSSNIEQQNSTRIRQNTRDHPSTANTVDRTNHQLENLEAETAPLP
Chain of hDOPr (P41143 whole entry): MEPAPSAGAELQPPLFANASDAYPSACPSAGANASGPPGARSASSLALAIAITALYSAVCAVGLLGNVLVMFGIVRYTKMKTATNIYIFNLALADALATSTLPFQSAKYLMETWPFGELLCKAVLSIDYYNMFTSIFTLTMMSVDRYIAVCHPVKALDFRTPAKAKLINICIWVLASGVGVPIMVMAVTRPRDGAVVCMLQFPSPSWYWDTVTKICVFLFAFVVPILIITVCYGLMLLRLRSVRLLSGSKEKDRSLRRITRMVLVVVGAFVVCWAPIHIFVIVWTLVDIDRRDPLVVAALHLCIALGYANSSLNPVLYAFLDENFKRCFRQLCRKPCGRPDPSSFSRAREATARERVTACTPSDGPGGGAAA

Sequence | Selectivity DOPr/KOPr (GTPγS) [1] | Selectivity MOPr/KOPr (GTPγS) [1] | hKOPr % stim, stimulation of [35S]GTPγS binding [1] [%] | preference for hKOPr over hDOPr (GTPγS) [1] [fold] | Emax [1] [%] | EC50 [1, 9] [nM] | EC50 [1, 10] [nM] | biased factor at hKOPr [2] | Ki [3] [nM] | p38 phosphorylation compared to DynB_WT [4] | Ki [5] [nM] | Selectivity DOPr/KOPr [6] | Selectivity MOPr/KOPr [6] | Ki [6] [nM] | Emax [7] [%] | EC50 [7] [nM] | hMOPr % stim, stimulation of [35S]GTPγS binding [8] [%] | EC50 [8] [nM] | further results
YGAFLRRAFKVVT [DynB_G3A/Q8A] | 84 | 20 | 88.6 ± 3.1 | 84 | 88.6 ± 3.1 | 14.6 ± 1.57 | 14.6 ± 1.6 | 0.6 ± 0.2 | 86.1 ± 7 | significantly less phosphorylated | 417 ± 52 | 778 | 161 | 0.54 | 88.7 ± 2.6 | 66.1 ± 1.6 | 111 ± 7.7 | 297 ± 46.6 | potency for hKOPr as compared to DynB (GTPγS) [1]: minor reduction in the potency; preference for hKOPr over hMOPr (GTPγS) [1]: 20 fold; stimulation of the receptor (β-arrestin recruitment) in comparison to DynB_WT [7]: lower stimulation
YGGFSRRQFKVVT [DynB_L5S] | 17 | 6 | 99.1 ± 2.1 | 17 | 99.1 ± 2.1 | 17.7 ± 2.84 | 17.7 ± 2.8 | 0.7 ± 0.2 | 18.6 ± 1.3 | significantly less phosphorylated | 573 ± 22.6 | 4,153 | 135 | 0.14 | 95.1 ± 7.7 | 146 ± 26.5 | 93.4 ± 5.6 | 107 ± 8.6 | potency for β-arrestin recruitment compared to DynB_WT [7]: significantly lower potency
